Reference: the supplement of paper PMC10307832

Columns and labels:
Assay in all cases: relative viability (nuclei count vs DMSO), 5 days (fraction); higher = more cells survive
[1] = test system: LU99A
Procedure, shortened: (§1)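 After 5 days of treatment, lung cancer cells in 1536-well plates were fixed and stained in a single step (final 0.05% Triton X-100, 1% formaldehyde, 1 ug/ml Hoechst) and their nuclei counted on 4× images. Treatment had been applied by pin tool the day after seeding as one drug alone or as a fixed anchor-drug dose with five library-drug doses (not always all listed) in √10 steps. Relative viability is the nuclei count of treated wells divided by that of vehicle wells, and values are medians of duplicate plates.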

[2] = test system: NCI-H2170
Procedure, shortened: as §1

[3] = test system: NCI-H650
Procedure, shortened: as §1

[4] = test system: 201T
Procedure, shortened: as §1

[5] = test system: NCI-H1437
Procedure, shortened: as §1

[6] = test system: NCI-H647
Procedure, shortened: as §1

[7] = test system: PC-3 [JPC-3]
Procedure, shortened: as §1

[8] = test system: NCI-H2085
Procedure, shortened: as §1

[9] = test system: EPLC-272H
Procedure, shortened: as §1

[10] = test system: H3255
Procedure, shortened: as §1

[11] = test system: HCC-44
Procedure, shortened: as §1

[12] = test system: NCI-H1666
Procedure, shortened: as §1

[13] = test system: EKVX
Procedure, shortened: as §1

[14] = test system: NCI-H1975
Procedure, shortened: as §1

[15] = test system: NCI-H2342
Procedure, shortened: as §1

[16] = test system: LOU-NH91
Procedure, shortened: as §1

[17] = test system: BEN
Procedure, shortened: as §1

[18] = test system: HCC-827
Procedure, shortened: as §1

[19] = test system: NCI-H2087
Procedure, shortened: as §1

[20] = test system: LCLC-97TM1
Procedure, shortened: as §1

Compound: O=c1cc(N2CCOCC2)oc2c(-c3cccc4c3sc3ccccc34)cccc12 + NC(=O)Nc1cc(-c2cccc(F)c2)sc1C(=O)N[C@H]1CCCNC1 [AZD7762] (partner 0.2 µM)
- relative viability ([1]; first compound 0.01 µM): 0.37
- relative viability ([1]; first compound 0.03162 µM): 0.415
- relative viability ([1]; first compound 0.1 µM): 0.438
- relative viability ([1]; first compound 0.3162 µM): 0.314
- relative viability ([1]; first compound 1 µM): 0.384
- relative viability ([2]; first compound 0.01 µM): 0.78
- relative viability ([2]; first compound 0.03162 µM): 0.945
- relative viability ([2]; first compound 0.1 µM): 0.734
- relative viability ([2]; first compound 0.3162 µM): 0.842
- relative viability ([2]; first compound 1 µM): 0.852
- relative viability ([3]; first compound 0.01 µM): 1.11
- relative viability ([3]; first compound 0.03162 µM): 1.15
- relative viability ([3]; first compound 0.3162 µM): 1.15
- relative viability ([3]; first compound 1 µM): 1.24
- relative viability ([4]; first compound 0.01 µM): 0.624
- relative viability ([4]; first compound 0.03162 µM): 0.619
- relative viability ([4]; first compound 0.1 µM): 0.615
- relative viability ([4]; first compound 0.3162 µM): 0.585
- relative viability ([4]; first compound 1 µM): 0.583
- relative viability ([5]; first compound 0.01 µM): 1.22
- relative viability ([5]; first compound 0.03162 µM): 1.12
- relative viability ([5]; first compound 0.1 µM): 1.12
- relative viability ([5]; first compound 0.3162 µM): 1.1
- relative viability ([5]; first compound 1 µM): 1.04
- relative viability ([6]; first compound 0.01 µM): 0.371
- relative viability ([6]; first compound 0.03162 µM): 0.486
- relative viability ([6]; first compound 0.1 µM): 0.0676
- relative viability ([6]; first compound 0.3162 µM): 0.515
- relative viability ([6]; first compound 1 µM): 0.363
- relative viability ([7]; first compound 0.01 µM): 0.65
- relative viability ([7]; first compound 0.03162 µM): 0.855
- relative viability ([7]; first compound 0.1 µM): 0.87
- relative viability ([7]; first compound 0.3162 µM): 0.954
- relative viability ([7]; first compound 1 µM): 0.834
- relative viability ([8]; first compound 0.01 µM): 1
- relative viability ([8]; first compound 0.03162 µM): 1.02
- relative viability ([8]; first compound 0.1 µM): 0.887
- relative viability ([8]; first compound 0.3162 µM): 1.05
- relative viability ([8]; first compound 1 µM): 1.01
- relative viability ([9]; first compound 0.01 µM): 0.244
- relative viability ([9]; first compound 0.03162 µM): 0.282
- relative viability ([9]; first compound 0.1 µM): 0.12
- relative viability ([9]; first compound 0.3162 µM): 0.31
- relative viability ([9]; first compound 1 µM): 0.211
- relative viability ([10]; first compound 0.01 µM): 0.901
- relative viability ([10]; first compound 0.03162 µM): 0.933
- relative viability ([10]; first compound 0.1 µM): 0.845
- relative viability ([10]; first compound 0.3162 µM): 0.822
- relative viability ([10]; first compound 1 µM): 0.852
- relative viability ([11]; first compound 0.01 µM): 1.03
- relative viability ([11]; first compound 0.03162 µM): 1.08
- relative viability ([11]; first compound 0.1 µM): 0.973
- relative viability ([11]; first compound 0.3162 µM): 1.01
- relative viability ([11]; first compound 1 µM): 0.966
- relative viability ([12]; first compound 0.01 µM): 0.842
- relative viability ([12]; first compound 0.03162 µM): 0.886
- relative viability ([12]; first compound 0.1 µM): 0.797
- relative viability ([12]; first compound 0.3162 µM): 0.675
- relative viability ([12]; first compound 1 µM): 0.7
- relative viability ([13]; first compound 0.01 µM): 0.654
- relative viability ([13]; first compound 0.03162 µM): 0.757
- relative viability ([13]; first compound 0.1 µM): 0.445
- relative viability ([13]; first compound 0.3162 µM): 0.878
- relative viability ([13]; first compound 1 µM): 0.695
- relative viability ([14]; first compound 0.01 µM): 0.676
- relative viability ([14]; first compound 0.03162 µM): 0.735
- relative viability ([14]; first compound 0.1 µM): 0.554
- relative viability ([14]; first compound 0.3162 µM): 0.808
- relative viability ([14]; first compound 1 µM): 0.553
- relative viability ([15]; first compound 0.01 µM): 0.566
- relative viability ([15]; first compound 0.03162 µM): 0.483
- relative viability ([15]; first compound 0.1 µM): 0.366
- relative viability ([15]; first compound 0.3162 µM): 0.45
- relative viability ([15]; first compound 1 µM): 0.433
- relative viability ([16]; first compound 0.01 µM): 0.755
- relative viability ([16]; first compound 0.03162 µM): 0.785
- relative viability ([16]; first compound 0.1 µM): 0.803
- relative viability ([16]; first compound 0.3162 µM): 0.78
- relative viability ([16]; first compound 1 µM): 0.751
- relative viability ([17]; first compound 0.01 µM): 0.576
- relative viability ([17]; first compound 0.03162 µM): 0.86
- relative viability ([17]; first compound 0.1 µM): 0.289
- relative viability ([17]; first compound 0.3162 µM): 0.735
- relative viability ([17]; first compound 1 µM): 0.626
- relative viability ([18]; first compound 0.01 µM): 0.26
- relative viability ([18]; first compound 0.03162 µM): 0.179
- relative viability ([18]; first compound 0.1 µM): 0.133
- relative viability ([18]; first compound 0.3162 µM): 0.184
- relative viability ([18]; first compound 1 µM): 0.261
- relative viability ([19]; first compound 0.01 µM): 1.37
- relative viability ([19]; first compound 0.03162 µM): 1.23
- relative viability ([19]; first compound 0.1 µM): 1.44
- relative viability ([19]; first compound 0.3162 µM): 1.31
- relative viability ([19]; first compound 1 µM): 1.36
- relative viability ([20]; first compound 0.01 µM): 0.215
- relative viability ([20]; first compound 0.03162 µM): 0.353
- relative viability ([20]; first compound 0.1 µM): 0.0724
- relative viability ([20]; first compound 0.3162 µM): 0.349
- relative viability ([20]; first compound 1 µM): 0.22
